The supplement of paper PMC10307832

Experiments:
Experiment in all cases: relative viability (nuclei count vs DMSO), 5 days (fraction); higher = more cells survive
[1] = compound: CC1=C(C(=O)N2C=CSC2=N1)CCN3CCC(=C(C4=CC=CC=C4)C5=CC=C(C=C5)F)CC3 + C[C@@H](Oc1cc(-c2cnn(C3CCNCC3)c2)cnc1N)c1c(Cl)ccc(F)c1Cl [Crizotinib] (partner 1 µM)
How it was run: (§1)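 Dosing by pin tool came one day after lung cancer cell lines were seeded in 1536-well plates, using either one drug or a fixed anchor-drug dose plus five library-drug doses (not always all listed) in √10 steps. After 5 days, nuclei were counted on 4× images. Relative viability is treated-well nuclei count divided by vehicle-well nuclei count, and values are medians of duplicate plates.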

[2] = compound: CC1=C(C(=O)N2C=CSC2=N1)CCN3CCC(=C(C4=CC=CC=C4)C5=CC=C(C=C5)F)CC3 + C[C@]1(O)C[C@@H](c2nc(-c3ccc4ccc(-c5ccccc5)nc4c3)c3c(N)nccn32)C1 [Linsitinib] (partner 1 µM)
How it was run: as §1

[3] = compound: CC1=C(C(=O)N2C=CSC2=N1)CCN3CCC(=C(C4=CC=CC=C4)C5=CC=C(C=C5)F)CC3 + Cc1cc(Nc2cc(N3CCN(C)CC3)nc(Sc3ccc(NC(=O)C4CC4)cc3)n2)n[nH]1 [Tozasertib] (partner 0.1 µM)
How it was run: as §1

[4] = compound: CC1=C(C(=O)N2C=CSC2=N1)CCN3CCC(=C(C4=CC=CC=C4)C5=CC=C(C=C5)F)CC3 + COc1cccc2cc(-c3nc([C@H]4CC[C@H](C(=O)O)CC4)n4ncnc(N)c34)[nH]c12 [OSI-027] (partner 0.5 µM)
How it was run: as §1

Cell Line | relative viability ([1]; first compound 0.08 µM) | relative viability ([1]; first compound 0.253 µM) | relative viability ([1]; first compound 0.8 µM) | relative viability ([1]; first compound 2.53 µM) | relative viability ([1]; first compound 8 µM) | relative viability ([2]; first compound 0.08 µM) | relative viability ([2]; first compound 0.253 µM) | relative viability ([2]; first compound 0.8 µM) | relative viability ([2]; first compound 2.53 µM) | relative viability ([2]; first compound 8 µM) | relative viability ([3]; first compound 0.08 µM) | relative viability ([3]; first compound 0.253 µM) | relative viability ([3]; first compound 0.8 µM) | relative viability ([3]; first compound 2.53 µM) | relative viability ([3]; first compound 8 µM) | relative viability ([4]; first compound 0.08 µM) | relative viability ([4]; first compound 0.253 µM) | relative viability ([4]; first compound 0.8 µM) | relative viability ([4]; first compound 2.53 µM) | relative viability ([4]; first compound 8 µM)
NCI-H2405 | 0.817 | 0.788 | 0.871 | 0.858 | 0.725 | 0.999 | 1.14 | 1.1 | 0.862 | 0.744 | 0.777 | 0.767 | 0.749 | 0.601 | 0.618 | 0.664 | 0.614 | 0.677 | 0.624 | 0.606
NCI-H1395 |  |  |  |  |  | 1.21 | 0.982 | 1.08 | 0.891 | 1.07 | 0.809 | 0.868 | 0.697 | 0.765 | 0.686 | 0.685 | 0.626 | 0.558 | 0.596 | 0.621
NCI-H1648 |  |  |  |  |  |  |  |  |  |  | 0.391 |  |  | 0.392 | 0.525 | 0.229 |  |  | 0.209 | 0.265
PC-14 | 0.919 | 0.907 | 0.875 | 1.13 | 0.716 | 0.904 | 1.07 | 1.02 | 0.947 | 0.734 | 0.489 | 0.675 | 0.603 | 0.681 | 0.481 | 0.529 | 0.981 | 1.04 | 1.17 | 0.507
A549 | 0.855 | 0.777 | 0.665 | 0.64 | 0.579 |  | 0.61 | 0.658 | 0.432 | 0.309 |  |  |  |  |  |  |  |  |  | 
LOU-NH91 | 0.701 | 0.747 | 0.715 | 0.772 | 0.726 | 0.923 | 0.932 | 1.01 | 1.02 | 0.821 | 0.7 | 0.6 | 0.688 | 0.701 | 0.605 | 0.734 | 0.769 | 0.767 | 0.76 | 0.642
EMC-BAC-2 | 0.725 | 0.801 | 0.696 | 0.766 | 0.676 | 0.8 | 0.804 | 0.882 | 0.825 | 0.627 | 0.192 | 0.278 | 0.275 | 0.278 | 0.261 | 0.35 | 0.353 | 0.372 | 0.37 | 0.291
EBC-1 | 0.215 |  | 0.194 | 0.177 | 0.196 | 0.787 | 0.804 | 1.1 | 0.763 | 0.62 |  |  |  |  |  |  |  |  |  | 
NCI-H2009 | 1.25 | 1.12 | 0.968 | 1.14 | 1.11 | 1.29 | 1.29 | 1.19 | 1.16 | 1.12 | 0.775 | 0.668 | 0.738 | 0.756 | 0.478 | 0.638 | 0.619 | 0.616 | 0.637 | 0.527
NCI-H460 | 0.597 | 1.16 | 1.09 | 0.794 | 0.188 | 0.475 | 0.729 | 0.783 | 1.13 | 0.435 | 0.272 | 0.57 | 0.392 | 0.409 | 0.252 | 0.951 | 0.633 | 0.605 | 0.712 | 0.191
